Experimental data from ChEMBL document CHEMBL4387765, “Rational design, molecular docking and synthesis of novel homopiperazine linked imidazo[1,2-a]pyrimidine derivatives as potent cytotoxic and antimicrobial agents” (Bioorg Med Chem Lett, 2019).
Values after ≈ are worked out from the molar mass of the structure shown.

Tests used:
SK-OV-3 = experiment: Cytotoxicity against human SKOV3 cells assessed as reduction in cell growth measured after 48 hrs by sulforhodamine B assay; type: functional, cell-based; settings: SK-OV-3, 48 h
DU-145 [1] = experiment: Cytotoxicity against human DU145 cells assessed as reduction in cell growth measured after 48 hrs by sulforhodamine B assay; type: functional, cell-based; settings: DU-145, 48 h
HeLa [2] = experiment: Cytotoxicity against human HeLa cells assessed as reduction in cell growth measured after 48 hrs by sulforhodamine B assay; type: functional, cell-based
A549 = experiment: Cytotoxicity against human A549 cells assessed as reduction in cell growth measured after 48 hrs by sulforhodamine B assay; type: functional, cell-based; settings: A549, 48 h
Bacillus subtilis = experiment: Antibacterial activity against Bacillus subtilis MTCC 441 after 24 hrs by serial dilution method; type: functional; settings: MTCC 441, 24 h
Priestia megaterium = experiment: Antibacterial activity against Bacillus megaterium MTCC 428 after 24 hrs by serial dilution method; type: functional; settings: MTCC 428, 24 h
Escherichia coli = experiment: Antibacterial activity against Escherichia coli MTCC 443 after 24 hrs by serial dilution method; type: functional
Pseudomonas sp. = experiment: Antibacterial activity against Pseudomonas sp. 2496 after 24 hrs by serial dilution method; type: functional
Candida albicans = experiment: Antifungal activity against Candida albicans MTCC 227 after 72 hrs by serial dilution method; type: functional; settings: MTCC 227, 72 h
DU-145 [3] = experiment: Potency index, ratio of etoposide IC50 to test compound IC50 for human DU145 cells; type: functional
HeLa [4] = experiment: Potency index, ratio of etoposide IC50 to test compound IC50 for human HeLa cells; type: functional

Compound	IC50 (SK-OV-3) [µM]	IC50 (DU-145 [1]) [µM]	IC50 (HeLa [2]) [µM]	IC50 (A549) [µM]	MIC (Bacillus subtilis) [µg/mL]	MIC (Priestia megaterium) [µg/mL]	MIC (Escherichia coli; MTCC 443, 24 h) [µg/mL]	MIC (Pseudomonas sp.; Pseudomonas sp., 2496, 24 h) [µg/mL]	MIC (Candida albicans) [µg/mL]	MIC (Escherichia coli) [µg/mL]	MIC (Pseudomonas sp.) [µg/mL]	Ratio IC50 (DU-145 [3])	Ratio IC50 (HeLa [4])
COc1ccc(S(=O)(=O)N2CCCN(c3ccn4cc(-c5ccc(F)cc5)nc4n3)CC2)cc1	> 300	> 300	> 300	205	12.8 (≈ 26.6 µM)	14.6 (≈ 30.3 µM)	> 100	88.2 (≈ 183 µM)	9.4 (≈ 19.5 µM)				
O=C(C1CCCCC1)N1CCCN(c2ccn3cc(-c4ccc(F)cc4)nc3n2)CC1	14.5	183	170	104	> 100	> 100	> 100	44.2 (≈ 105 µM)	> 100				
CC1(C)S[C@@H]2[C@H](NC(=O)[C@H](N)c3ccccc3)C(=O)N2[C@H]1C(=O)O [AMPICILLIN]					22 (≈ 63 µM)	22 (≈ 63 µM)							
CN(C)C(=O)N1CCCN(c2ccn3cc(-c4ccc(F)cc4)nc3n2)CC1	71.5	10.6	> 300	5.98	18.6 (≈ 48.6 µM)	15.8 (≈ 41.3 µM)	0.86 (≈ 2.25 µM)	1.8 (≈ 4.71 µM)	4.6 (≈ 12 µM)				
O=S(=O)(C1CC1)N1CCCN(c2ccn3cc(-c4ccc(F)cc4)nc3n2)CC1	> 300	40.4	33.5	> 300	48.4 (≈ 116 µM)	64.6 (≈ 155 µM)	34.6 (≈ 83.3 µM)	28.2 (≈ 67.9 µM)	14.6 (≈ 35.1 µM)				
N#Cc1ccc(S(=O)(=O)N2CCCN(c3ccn4cc(-c5ccc(F)cc5)nc4n3)CC2)cc1	22.3	> 300	> 300	> 300	24.8 (≈ 52 µM)	21.7 (≈ 45.5 µM)	58.6 (≈ 123 µM)	34.2 (≈ 71.8 µM)	68.1 (≈ 143 µM)				
CC(=O)N1CCCN(c2ccn3cc(-c4ccc(F)cc4)nc3n2)CC1	105	> 300	220	103	84.2 (≈ 238 µM)	> 100	0.92 (≈ 2.6 µM)	12.6 (≈ 35.7 µM)	9.8 (≈ 27.7 µM)				
O=S(=O)(c1ccc(F)cc1F)N1CCCN(c2ccn3cc(-c4ccc(F)cc4)nc3n2)CC1	10	> 300	> 300	> 300	8.8 (≈ 18.1 µM)	10.4 (≈ 21.3 µM)	4.6 (≈ 9.44 µM)	5.2 (≈ 10.7 µM)	> 100				
Cc1ccc(S(=O)(=O)N2CCCN(c3ccn4cc(-c5ccc(F)cc5)nc4n3)CC2)cc1[N+](=O)[O-]	> 300	16.9	> 300	> 300	34.2 (≈ 67 µM)	58.8 (≈ 115 µM)	4.2 (≈ 8.23 µM)	8.6 (≈ 16.8 µM)	81.6 (≈ 160 µM)				
COC(=O)N1CCCN(c2ccn3cc(-c4ccc(F)cc4)nc3n2)CC1	38.7	> 300	262	8.02	35.8 (≈ 96.9 µM)	47.2 (≈ 128 µM)	7.8 (≈ 21.1 µM)	18.6 (≈ 50.4 µM)	81.6 (≈ 221 µM)				
O=C(c1ccc(Cl)cc1)N1CCCN(c2ccn3cc(-c4ccc(F)cc4)nc3n2)CC1	> 300	15.2	8.55	110	58.6 (≈ 130 µM)	58.6 (≈ 130 µM)	88.2 (≈ 196 µM)	> 100	> 100				
O=C(C1CC1)N1CCCN(c2ccn3cc(-c4ccc(F)cc4)nc3n2)CC1	18.8	> 300	> 300	144	88.6 (≈ 234 µM)	92.4 (≈ 244 µM)	94.7 (≈ 250 µM)	> 100	> 100				
CS(=O)(=O)N1CCCN(c2ccn3cc(-c4ccc(F)cc4)nc3n2)CC1	> 300	> 300	> 300	8.41	28.7 (≈ 73.7 µM)	26.4 (≈ 67.8 µM)	18.4 (≈ 47.2 µM)	34.6 (≈ 88.8 µM)	38.7 (≈ 99.4 µM)				
O=C(Cc1cccs1)N1CCCN(c2ccn3cc(-c4ccc(F)cc4)nc3n2)CC1	18.8	65.5	> 300	> 300	44.2 (≈ 101 µM)	38.6 (≈ 88.6 µM)	3.1 (≈ 7.12 µM)	3.1 (≈ 7.12 µM)	5.6 (≈ 12.9 µM)				
C[C@@H]1[C@H](O)[C@@H](C)/C=C/C=C/C=C/C=C/C=C/C=C/C=C/[C@H](O[C@@H]2O[C@H](C)[C@@H](O)[C@H](N)[C@@H]2O)C[C@@H]2O[C@](O)(C[C@@H](O)C[C@@H](O)[C@H](O)CC[C@@H](O)C[C@@H](O)CC(=O)O[C@H]1C)C[C@H](O)[C@H]2C(=O)O [AMPHOTERICIN B]									8 (≈ 8.66 µM)				
GENTAMICIN										3	6		
O=C(Cc1ccccc1)N1CCCN(c2ccn3cc(-c4ccc(F)cc4)nc3n2)CC1	17.4	> 300	> 300	262	38.6 (≈ 89.9 µM)	34.2 (≈ 79.6 µM)	8.4 (≈ 19.6 µM)	10.2 (≈ 23.7 µM)	> 100				
COc1cccc(S(=O)(=O)N2CCCN(c3ccn4cc(-c5ccc(F)cc5)nc4n3)CC2)c1	229	6.24	6.54	4.14	84.8 (≈ 176 µM)	84.4 (≈ 175 µM)	33.8 (≈ 70.2 µM)	22.1 (≈ 45.9 µM)	> 100			1.57	1.13
COc1cc([C@@H]2c3cc4c(cc3[C@@H](O[C@@H]3O[C@@H]5CO[C@@H](C)O[C@H]5[C@H](O)[C@H]3O)[C@H]3COC(=O)[C@H]23)OCO4)cc(OC)c1O [ETOPOSIDE]	2.39	9.8	7.43	10.4									
O=C(c1ccc(F)cc1)N1CCCN(c2ccn3cc(-c4ccc(F)cc4)nc3n2)CC1	12.7	> 300	6.12	194	34.4 (≈ 79.4 µM)	36.7 (≈ 84.7 µM)	22.8 (≈ 52.6 µM)	38.2 (≈ 88.1 µM)	74.2 (≈ 171 µM)				1.31
CN(C)S(=O)(=O)N1CCCN(c2ccn3cc(-c4ccc(F)cc4)nc3n2)CC1	> 300	> 300	> 300	29.9	9.6 (≈ 22.9 µM)	10.2 (≈ 24.4 µM)	1.4 (≈ 3.35 µM)	3.8 (≈ 9.08 µM)	8.2 (≈ 19.6 µM)				
